Reference: patent US20240199755A1, “ANTAGONISTS AND AGONISTS OF THE TRANSFERRIN RECEPTOR-2 FOR USE IN THE TREATMENT OF DISEASES OF THE BONE” (Kymab Limited, priority 2018, published 2024)

Tests used:
[1] = test system: ERK (pERK) and p38 (pp38) signaling in osteoblasts; assay: Western blot of ERK and p38 activation in osteoblasts after anisomycin; format: cell-based, mice; conditions: 100 nM anisomycin for 20 min
Method: (§1) Signaling studies: day 7 differentiated cells were treated with 50 ng/ml BMP-2, BMP-4 or BMP-6 for 0, 20, and 40 min and lysed in protein lysis buffer (at least two independent experiments with 3 n each). Anisomycin was used to activate MAPK signaling on day 7 differentiated osteoblasts. Cells were treated with 100 nM anisomycin for 20 min for subsequent protein analysis. For RNA isolation and detection of gene expression, cells were treated with different doses of anisomycin for 24 h (two independent experiments with 3 n each).
Cells were lysed in a buffer containing 20 mM Tris/HCl pH 7.4, 1% SDS, and a protease inhibitor (complete mini, Roche, Germany). To isolate protein from tissues, the protein fraction of the Trifast procedure was used and further processed according to the manufacturer's protocol. The protein concentration was determined using the BCA method (Pierce, Germany). Twenty μg of heatdenatured protein was loaded onto a 10% gel, separated, and transferred onto a 0.2 μm nitrocellulose membrane (Whatman, Germany). […]

[2] = test system: Sost mRNA expression in osteoblasts; assay: Sost mRNA expression (qPCR) in ex vivo differentiated osteoblasts after anisomycin; format: cell-based, mice; conditions: 100 nM anisomycin, 24 h
Method: Primary murine osteoblasts were differentiated from the bone marrow using standard osteogenic medium in DMEM with 10% FCS, 1% penicillin/streptomycin (Life Technologies, Germany). RNA was isolated at various time points and day 7 osteoblasts were used for immunofluorescence analysis of Tfr2 and for the deep sequencing analysis.
as §1
RNA from cell cultures was isolated with the High Pure RNA Isolation Kit (Roche) and RNA from the bones of mice was isolated by crushing flushed bones (femur and tibia) in liquid nitrogen and collecting the bone powder in Trifast (Peqlab, Germany). Other organs were homogenized directly in Trifast using an ultraturrax (IKA, Germany). […] The results were calculated using the ΔΔCT method and are presented in x-fold increase relative to β-actin (or GAPDH where indicated) mRNA levels.

[3] = test system: bone mass of Tfr2-/- mice; assay: Anisomycin treatment of WT and Tfr2-/- mice; format: in vivo; conditions: 5 mg/kg anisomycin for 3 weeks
[4] = biological target: T1, BMP-2 binding to Tfr2-ECD (Homo sapiens, UniProt P12643); assay: SPR competition / sequential injection experiments on Tfr2-ECD surface; conditions: sequential injection of BMP-2 and holo-Tf
T1 construct: full-length extracellular domain (ECD, aa 103-798) of murine Tfr2; His (N); MBP (N); c3 (protease site between MBP and ECD) (N); host or cells: Sf9 insect cells (Tfr2-ECD)
T1 sequence (P12643 283-396): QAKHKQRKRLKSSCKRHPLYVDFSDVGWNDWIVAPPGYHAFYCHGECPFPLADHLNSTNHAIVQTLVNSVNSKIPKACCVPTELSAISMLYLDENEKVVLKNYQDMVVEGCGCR
Method: The binding analysis was performed at 37° C. at a flow rate of 30 μl/min. […] In some experiments, 500 mM NaCl were used to reduce potential non-specific binding. […] Concentration-dependent binding of holo-Tf was performed without intermediate regeneration.

Tfr2-ECD = biological target: T2, Tfr2-ECD (Mus musculus, UniProt Q9JKX3); assay: SPR binding of holo-Tf and BMP receptors to Tfr2-ECD immobilized on the sensor chip; set-up: species or system murine; conditions: increasing holo-Tf concentrations without intermediate regeneration
T2 construct: full-length extracellular domain (ECD, aa 103-798) of murine Tfr2; His (N); MBP (N); c3 (protease site between MBP and ECD) (N); made in house; host or cells: Sf9 insect cells (baculovirus, pOCC211-Tfr2-ECD)
T2 sequence (Q9JKX3 103-798): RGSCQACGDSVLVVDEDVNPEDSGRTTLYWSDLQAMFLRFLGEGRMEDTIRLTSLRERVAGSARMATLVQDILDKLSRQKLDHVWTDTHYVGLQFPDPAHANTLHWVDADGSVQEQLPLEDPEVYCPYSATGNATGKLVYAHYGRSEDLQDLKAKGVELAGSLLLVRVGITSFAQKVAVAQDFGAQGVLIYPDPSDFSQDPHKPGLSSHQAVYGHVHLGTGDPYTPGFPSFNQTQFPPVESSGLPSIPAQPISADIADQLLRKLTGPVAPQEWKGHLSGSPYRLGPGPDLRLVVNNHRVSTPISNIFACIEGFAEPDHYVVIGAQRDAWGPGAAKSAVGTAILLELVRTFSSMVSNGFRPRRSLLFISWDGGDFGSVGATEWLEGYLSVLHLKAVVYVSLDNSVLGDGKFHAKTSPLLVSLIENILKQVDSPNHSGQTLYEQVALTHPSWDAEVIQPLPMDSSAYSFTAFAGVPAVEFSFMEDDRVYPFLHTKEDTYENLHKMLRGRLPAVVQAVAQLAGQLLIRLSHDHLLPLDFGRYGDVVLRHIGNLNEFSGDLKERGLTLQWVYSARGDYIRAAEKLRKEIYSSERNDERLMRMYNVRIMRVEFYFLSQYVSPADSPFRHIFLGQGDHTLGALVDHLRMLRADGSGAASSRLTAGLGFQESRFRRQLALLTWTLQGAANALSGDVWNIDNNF
Method: For this purpose, Tfr2-ECD is immobilized on a Series S Sensor Chip C1 (GE Healthcare), by means of coupling the amino groups at 25° C. The carboxyl groups on the chip surface are activated for 7 minutes using a mixture of 196 mM 1-ethyl-3-(3-dimethylaminopropyl) carbodiimide-hydrochloride and 50 mM n-hydroxysuccinimide at a flow rate of 10 μl/min. Subsequently, 5 μg/ml Tfr2-ECD, diluted with sodium acetate buffer (pH 4.5), is injected at a flow rate of 5 μl/min up to a relative occupancy of 200 RU. Non-reacted groups are inactivated by injecting 1 M thanolamine-HCl (pH 8.5) for 7 minutes at a flow rate of 10 μl/min. In order to prepare a reference surface, the same procedure is carried out but without Tfr2-ECD being injected.
The binding assays are carried out at 37° C. at a flow rate of 30 μl/min. Each analyte is diluted by a running buffer (HBS-P, pH 7.4 together with 50 nM FeCl3). […] The values of the binding level are read out, relative to the baseline, 10 s before the end of the injection and are corrected with respect to the molar mass. […] The binding parameters are determined using the Biacore™ T100 evaluation software 2.03. […]
For binding analysis, an injection of analyte for 240 s or 300 s over a Tfr2-ECD surface was followed by 1000 s dissociation. The values of the binding levels were recorded from referenced signals 10 s before the end of injection relative to baseline response. […]

`COc1ccc(C[C@H]2NC[C@H](O)[C@H]2OC(C)=O)cc1` [anisomycin] was tested, and the “ERK and p38 phosphorylation” value [1] was “induced ERK and p38 phosphorylation”, the “Increase of Sost mRNA expression” value ([2]; Tfr2 osteoblasts) was 19 fold and the “Increase of Sost mRNA expression” value ([2]; WT osteoblasts) was 14 fold. For the same compound, the “Osteoclast numbers (Oc.S/BS)” value [3] was “not altered”, the “Bone volume (BV/TV of the fourth lumbar vertebrae)” value ([3]; Tfr2-/- mice) was “decreased bone volume back to WT levels” and the “Osteoblast numbers (N.Ob/B.Pm)” value ([3]; Tfr2-/- mice) was “reduced”. The “Serum levels of sclerostin” value ([3]; Tfr2-/- mice) was “increased”.

In the case of “Holo-Tf: holo-transferrin, the only known Tfr2 ligand”, the “Competition with BMP-2 for binding to Tfr2” value [4] is reported as “did not compete” and the “Kd value of holo-Tf binding to Tfr2” value (Tfr2-ECD) is reported as “micromolar range”.
